Reference: ChEMBL document CHEMBL4725408, “Antibacterial Spiropyrimidinetriones with N-Linked Azole Substituents on a Benzisoxazole Scaffold Targeting DNA Gyrase” (J Med Chem, 2020)
Converted amounts (≈) assume the structure as drawn.

Tests used:
[1] = Inhibition of recombinant Escherichia coli DNA gyrase AB expressed in Escherichia coli BL21 (DE3) using relaxed pJT519 DNA as substrate preincubated for 20 mins followed by 5'-BODIPY-TMR-TTCTTCTTCT addition and measured after 1 hr by fluorescence anisotropy
[2] = Protein binding in human plasma assessed as unbound fraction at 10 uM measured after 16 hrs by LC-MS/MS based equilibrium dialysis method; type: ADME, cell-free
Staphylococcus aureus [3] = assay: Antibacterial activity against methicillin sensitive Staphylococcus aureus ARC516 in presence of human serum by broth microdilution method; type: functional
[4] = n-octanol/phosphate buffer partition coefficient, log D of the compound at pH 7.4 measured after 1 hr by UV-LC/MS based shake flask method; type: physicochemical
Streptococcus pyogenes = assay: Antibacterial activity against Streptococcus pyogenes ARC838 by broth microdilution method; type: functional
Haemophilus influenzae = assay: Antibacterial activity against Haemophilus influenzae ARC737 by broth microdilution method; type: functional
Streptococcus pneumoniae = assay: Antibacterial activity against Streptococcus pneumoniae ARC548 by broth microdilution method; type: functional
[5] = Solubility of the compound by high throughput solubility assay; type: physicochemical
Staphylococcus aureus [6] = assay: Antibacterial activity against methicillin sensitive Staphylococcus aureus ARC516 by broth microdilution method; type: functional
Staphylococcus aureus [7] = assay: Antibacterial activity against methicillin/quinolone-resistant Staphylococcus aureus ARC517 by broth microdilution method; type: functional
Escherichia coli = assay: Antibacterial activity against Escherichia coli ARC523 by broth microdilution method; type: functional
L5178Y = assay: Genotoxicity in mouse L5178Y cells using DAPI staining by microscopy based micronucleation assay; type: toxicity, cell-based

| SMILES | IC50 [1] [nM] | fraction unbound at 16 h, 10 µM [2] | MIC (Staphylococcus aureus [3]) [µM] | logD at 1 h [4] | MIC (Streptococcus pyogenes) [µM] | MIC (Haemophilus influenzae) [µM] | MIC (Streptococcus pneumoniae) [µM] | solubility [5] [µM] | MIC (Staphylococcus aureus [6]) [µM] | MIC (Staphylococcus aureus [7]) [µM] | MIC (Escherichia coli) [µM] | NOAEL (L5178Y) [µM] |
| --- | --- | --- | --- | --- | --- | --- | --- | --- | --- | --- | --- | --- |
| Cc1ncn(-c2noc3c(F)c4c(cc23)CC2(C(=O)NC(=O)NC2=O)[C@H]2[C@H](C)O[C@H](C)CN42)n1 | 1000 | 0.053 | 0.78 | 1.9 | 0.78 (≈ 0.366 µg/mL) | 1.6 (≈ 0.751 µg/mL) | 3.1 (≈ 1.46 µg/mL) | 29 (≈ 13.6 µg/mL) | 0.2 (≈ 0.0939 µg/mL) | 0.78 (≈ 0.366 µg/mL) | 100 (≈ 46.9 µg/mL) |  |
| C[C@@H]1CN2c3c(cc4c(-n5ncnc5NC[C@@H](C)O)noc4c3F)CC3(C(=O)NC(=O)NC3=O)[C@H]2[C@H](C)O1 | 160 | 0.13 | < 0.2 | 1.9 | < 0.2 | 0.39 (≈ 0.206 µg/mL) | < 0.2 | > 1000 | 0.098 (≈ 0.0518 µg/mL) | 0.63 (≈ 0.333 µg/mL) | 25 (≈ 13.2 µg/mL) | 12 |
| C[C@@H]1CN2c3c(cc4c(-n5ncnc5C#N)noc4c3F)CC3(C(=O)NC(=O)NC3=O)[C@H]2[C@H](C)O1 | 320 | 0.076 | 0.39 | 2 | 0.39 (≈ 0.187 µg/mL) | 0.39 (≈ 0.187 µg/mL) | 0.39 (≈ 0.187 µg/mL) | 560 (≈ 269 µg/mL) | < 0.2 | < 0.2 | 6.2 (≈ 2.98 µg/mL) |  |
| C[C@@H]1CN2c3c(cc4c(-n5ncnc5NCC(=O)N5CC[C@@H](N(C)C)C5)noc4c3F)CC3(C(=O)NC(=O)NC3=O)[C@H]2[C@H](C)O1 | 80 | 0.26 | 0.2 | 1.3 | 0.39 (≈ 0.244 µg/mL) | 1.6 (≈ 0.999 µg/mL) | < 0.2 | 690 (≈ 431 µg/mL) | 0.2 (≈ 0.125 µg/mL) | 1.6 (≈ 0.999 µg/mL) | 25 (≈ 15.6 µg/mL) |  |
| C[C@@H]1CN2c3c(cc4c(-n5ncnc5NCCO)noc4c3F)CC3(C(=O)NC(=O)NC3=O)[C@H]2[C@H](C)O1 | 270 | 0.14 | < 0.2 | 1.6 | 0.39 (≈ 0.201 µg/mL) | 0.39 (≈ 0.201 µg/mL) | 0.39 (≈ 0.201 µg/mL) | 625 (≈ 322 µg/mL) | 0.39 (≈ 0.201 µg/mL) | 0.78 (≈ 0.401 µg/mL) | 25 (≈ 12.9 µg/mL) |  |
| C[C@@H]1CN2c3c(cc4c(-n5ncnc5NCCN5CCOCC5)noc4c3F)CC3(C(=O)NC(=O)NC3=O)[C@H]2[C@H](C)O1 | 310 | 0.11 | 0.78 | 2.1 | 0.39 (≈ 0.228 µg/mL) | 1.6 (≈ 0.934 µg/mL) | 0.39 (≈ 0.228 µg/mL) | 150 (≈ 87.5 µg/mL) | < 0.2 | 3.5 (≈ 2.04 µg/mL) | 100 (≈ 58.4 µg/mL) |  |
| C[C@@H]1CN2c3c(cc4c(-n5ncnc5N)noc4c3F)CC3(C(=O)NC(=O)NC3=O)[C@H]2[C@H](C)O1 | 75 | 0.11 | < 0.2 | 1.9 | 0.098 (≈ 0.0461 µg/mL) | 0.39 (≈ 0.183 µg/mL) | 0.098 (≈ 0.0461 µg/mL) | 460 (≈ 216 µg/mL) | 0.049 (≈ 0.0231 µg/mL) | < 0.2 | 12 (≈ 5.65 µg/mL) | 6 |
| C[C@@H]1CN2c3c(cc4c(-n5ncnc5[C@@H](C)O)noc4c3F)CC3(C(=O)NC(=O)NC3=O)[C@H]2[C@H](C)O1 | 180 | 0.23 | 0.78 | 1.4 | 0.78 (≈ 0.39 µg/mL) | 0.78 (≈ 0.39 µg/mL) | 0.78 (≈ 0.39 µg/mL) | 920 (≈ 460 µg/mL) | 0.39 (≈ 0.195 µg/mL) | 0.78 (≈ 0.39 µg/mL) | 50 (≈ 25 µg/mL) |  |
| C[C@@H]1CN2c3c(cc4c(-n5ncnc5NCC(=O)N5CC[C@H](N(C)C)C5)noc4c3F)CC3(C(=O)NC(=O)NC3=O)[C@H]2[C@H](C)O1 | 180 | 0.26 | 0.2 | 1.7 | 0.39 (≈ 0.244 µg/mL) | 1.6 (≈ 0.999 µg/mL) | < 0.2 | 880 (≈ 550 µg/mL) | 0.2 (≈ 0.125 µg/mL) | 2.2 (≈ 1.37 µg/mL) | 50 (≈ 31.2 µg/mL) | 12 |
| C[C@@H]1CN2c3c(cc4c(-n5ncnc5[C@H](C)O)noc4c3F)CC3(C(=O)NC(=O)NC3=O)[C@H]2[C@H](C)O1 | 430 | 0.21 | 1.6 | 1.3 | 1.6 (≈ 0.799 µg/mL) | 1.6 (≈ 0.799 µg/mL) | 1.6 (≈ 0.799 µg/mL) | 960 (≈ 479 µg/mL) | 0.78 (≈ 0.39 µg/mL) | 1.6 (≈ 0.799 µg/mL) | 79 (≈ 39.5 µg/mL) |  |
| C[C@@H]1CN2c3c(cc4c(-n5ncnc5N5CCOCC5)noc4c3F)CC3(C(=O)NC(=O)NC3=O)[C@H]2[C@H](C)O1 | 660 | 0.17 | 0.78 | 1.6 | 0.78 (≈ 0.422 µg/mL) | 1.6 (≈ 0.865 µg/mL) | 1.6 (≈ 0.865 µg/mL) | > 1000 | 0.39 (≈ 0.211 µg/mL) | 0.98 (≈ 0.53 µg/mL) | 200 (≈ 108 µg/mL) |  |
| CO/N=C1\CN(c2nc3c(cc2F)c(=O)c(C(=O)O)cn3C2CC2)CC1CN (stereo not given) [GEMIFLOXACIN] |  |  |  |  |  |  |  |  |  |  |  | 3 |
| C[C@@H]1CN2c3c(cc4c(-n5ncnc5N(C)C)noc4c3F)CC3(C(=O)NC(=O)NC3=O)[C@H]2[C@H](C)O1 | 670 | 0.13 | 1.6 | 1.7 | 0.78 (≈ 0.389 µg/mL) | 1.6 (≈ 0.798 µg/mL) | 1.6 (≈ 0.798 µg/mL) | > 1000 | 0.39 (≈ 0.194 µg/mL) | 0.78 (≈ 0.389 µg/mL) | 100 (≈ 49.8 µg/mL) |  |
| Cc1ncnn1-c1noc2c(F)c3c(cc12)CC1(C(=O)NC(=O)NC1=O)[C@H]1[C@H](C)O[C@H](C)CN31 | 340 | 0.098 | 0.39 | 2.1 | 0.55 (≈ 0.258 µg/mL) | 1.6 (≈ 0.751 µg/mL) | 0.78 (≈ 0.366 µg/mL) | 22 (≈ 10.3 µg/mL) | 0.2 (≈ 0.0939 µg/mL) | 0.39 (≈ 0.183 µg/mL) | 50 (≈ 23.5 µg/mL) |  |
| C[C@H](O)CNc1ncnn1-c1noc2c(F)c3c(cc12)CC1(C(=O)NC(=O)NC1=O)[C@H]1[C@H](C)O[C@H](C)CN31 | 260 | 0.12 | < 0.2 | 1.9 | 0.19 (≈ 0.1 µg/mL) | 0.39 (≈ 0.206 µg/mL) | 0.19 (≈ 0.1 µg/mL) | 200 (≈ 106 µg/mL) | < 0.2 | 0.63 (≈ 0.333 µg/mL) | 25 (≈ 13.2 µg/mL) |  |
| COCCOc1ncnn1-c1noc2c(F)c3c(cc12)CC1(C(=O)NC(=O)NC1=O)[C@H]1[C@H](C)O[C@H](C)CN31 | 320 | 0.12 | 1.6 | 1.7 | < 0.2 | 0.39 (≈ 0.206 µg/mL) | < 0.2 | 640 (≈ 339 µg/mL) | 0.39 (≈ 0.206 µg/mL) | 1.6 (≈ 0.847 µg/mL) | 100 (≈ 52.9 µg/mL) |  |
| COCCNc1ncnn1-c1noc2c(F)c3c(cc12)CC1(C(=O)NC(=O)NC1=O)[C@H]1[C@H](C)O[C@H](C)CN31 | 38 | 0.077 | < 0.2 | 2.2 | < 0.2 | 0.39 (≈ 0.206 µg/mL) | < 0.2 | 6 (≈ 3.17 µg/mL) | 0.039 (≈ 0.0206 µg/mL) | 0.098 (≈ 0.0518 µg/mL) | 25 (≈ 13.2 µg/mL) |  |
